Data taken from patent US8101606B2, “Neurofibromin pathway modulators” (Washington University, priority 2007, dated 2012).
Entries after “also recorded” stand apart in the source; their conditions may differ.

Assays:
[1] = system: mTOR pathway activation (S6 phosphorylation); assay: S6 phosphorylation (mTOR pathway activation) in neurofibromin 1 deficient astrocytes, phospho-specific antibodies; type: cell-based, mouse; conditions: Nf1-/- astrocytes; concentration not given
Excerpt: Evidence exists for direct activation of mTOR signaling by Akt as well as indirect activation of mTOR by Akt through the tuberous sclerosis complex (TSC)/Rheb pathway. Studies have shown that the mTOR activation resulting from neurofibromin loss in astrocytes can be reversed by restoring NF1-GAP activity (NF1 GRD), blocking K-RAS activity (K-RASN17), or inhibiting PI-3K activation of Akt.

S6 activation = S6 activation in Tsc1-deficient astrocytes; type: cell-based
Excerpt: FIG. 8 depicts images showing that Rheb pharmacologic inhibition blocks mTOR pathway activation in Tsc1-deficient, but not neurofibromin 1 deficient, astrocytes.
In each case, the abnormal Tsc1^−/− and neurofibromin 1^−/− astrocyte phenotypes were reversed by mTOR inhibition (rapamycin treatment). […] These studies provide preliminary evidence for a TSC/Rheb-independent mechanism.

CSCC[C@H](NC(=O)c1ccc(NC[C@@H](N)CS)cc1-c1ccccc1)C(=O)O [FTI-276]
S6 activation / phosphorylation (mTOR pathway activation) [1]: did not reduce S6 hyperactivation; also recorded: no effect on S6 activity
S6 activation (S6 activation): effectively blocks S6 activation; also recorded: reduced S6 activation
